# Counter-ions that a name gives are not always drawn. Like-named read-outs stand apart in the source and are kept apart here.
# Key:
# Pim-2 = Pim-2 (Homo sapiens (Human), UniProt Q9P1W9); assay: ADP-Glo Kinase Assay, Pim-2; assay type: biochemical; conditions: 1 μM compound; for inhibition at 1 µM: read-out: Pim-2 % INH (1 μM)
# Experimental: (§1) Compounds of the present invention were tested for their inhibitory activity against Pim-1, Pim-2, Pim-3, Flt3 wt, Flt3 ITD, CDK2/E and DYRK1. The testing of the compounds was carried out using the ADP-Glo™ Kinase Assay from Promega Corporation (Madison, Wis., USA).
# (§2) The ADP-Glo™ Kinase Assay is a luminescent ADP detection assay to measure kinase activity by quantifying the amount of ADP produced during a kinase reaction. The kinase assay is performed in kinase assay buffer (5 mM MOPS, pH 7.5, 5 mM MgCl2, 0.4 mM EDTA, 1.5 mM DTT). Test samples initially dissolved in DMSO at 10 mM were diluted with the assay buffer to 1000 nM. A 30 μL volume/well of a mixture of substrates containing ATP (final ATP concentration in each kinase assay was equal to its apparent ATP Km).
# (§3) The assay was performed in two steps: first, after the kinase reaction, an equal volume of ADP-Glo™ Reagent was added to terminate the kinase reaction and deplete the remaining ATP. Second, the Kinase Detection Reagent was added to simultaneously convert ADP to ATP and allowed the newly synthesized ATP to be measured using a luciferase/luciferin reaction. The luminescent signal generated was proportional to the ADP concentration produced and was correlated with kinase activity. A microplate spectrophotometer (Synergy 2 multi-mode microplate reader [BioTek]) was used for detecting the luminescence. The data was normalized and the percent of inhibition was obtained according to the following equation: […]
# DYRK1 = DYRK1 (Homo sapiens (Human), UniProt Q13627); assay: ADP-Glo Kinase Assay, DYRK1; assay type: biochemical; conditions: 1 μM compound; for inhibition at 1 µM: read-out: DYRK1A % INH (1 μM)
# Experimental: as §1, §2, §3
# FLT3wt = FLT3wt (Homo sapiens (Human), UniProt P36888); assay: ADP-Glo Kinase Assay, Flt3 wt; assay type: biochemical; conditions: 1 μM compound; for inhibition at 1 µM: read-out: Flt3wt % INH (1 μM)
# Experimental: as §1, §2, §3
# Pim-3 = Pim-3 (Homo sapiens (Human), UniProt Q86V86); assay: ADP-Glo Kinase Assay, Pim-3; assay type: biochemical; conditions: 1 μM compound; for inhibition at 1 µM: read-out: Pim-3 % INH (1 μM)
# Experimental: as §1, §2, §3
# HEL92 cells = assay: Growth inhibition, MTS assay, HEL92; assay type: cell-based, Human; conditions: MTS cell viability, read-out: HEL92 ED50
# Excerpt: (§4) The following cell lines, were obtained and used in tests as outlined below: • Human myelomonocytic, biphenotypic leukemia MV4-11 cells (harboring a Flt3-ITD mutation); • Human Acute Myeloid Leukemia MOLM16 cells; • Human Acute Myeloid Leukemia MOLM13 cells (harboring a Flt3-ITD mutation); • Human Myeloid Leukemia KG-1 cells; • Human erythroleukemia HEL92 cells; • Human mantle cell lymphoma Jeko-1 cells; • Human hepatocellular carcinoma HepG2 cells; and • Human colon adenocarcinoma SW-480 cells.
# (§5) The assays were carried out according to the following protocol, which is described as an example for the MV4-11 cells:
# (§6) Ten thousand MV4-11 cells were inoculated into each well of a 96-well microplate (manufactured by Corning Corp.) using Iscove's MDM medium (culture medium) containing 10% fetal calf serum (FCS). The same day, a dimethyl sulfoxide (DMSO) solution of each test compound prepared in a concentration of 10 mmol/L was further diluted with DMSO to the desired concentrations (0.1, 0.5, 1, 2.5, 5 and 10 micromol/L), and the diluted solution was added to each well. The individual wells were further cultured in 5% carbon dioxide at 37° C. for 72 hours. […] Briefly, 10 μl MTS (3-(4,5-Dimethyl-2-thiazolyl)-5-(carboxymethoxyphenyl)-2-(4-sulfophenyl)-2H-tetrazolium was added to each well, and culturing was performed in 5% carbon dioxide at 37° C. for 2 hours. After this incubation and using a microplate spectrophotometer (Synergy 2 multi-mode microplate reader (BioTek)), the absorbance of each well was measured at 490 nm. The value for cells not incubated with a test compound was designated as 100%. By comparing these values with the absorbance difference obtained at the well in which each test compound was added, the cell viability (% viability) after treatment with the test compound was calculated.
# HepG2 cells = assay: Growth inhibition, MTS assay, HepG2; assay type: cell-based, Human; conditions: MTS cell viability, read-out: HepG2 ED50
# Excerpt: as §4, §5, §6
# CDK2/E = CDK2/E (Homo sapiens (Human), UniProt P24941); assay: ADP-Glo Kinase Assay, CDK2/E; assay type: biochemical; conditions: 1 μM compound; for inhibition at 1 µM: read-out: CDK2/E % INH (1 μM)
# Experimental: as §1, §2, §3
# MV4-11 cells = assay: Growth inhibition, MTS assay, MV4-11; assay type: cell-based, Human; conditions: MTS cell viability, read-out: MV4-11 ED50
# Excerpt: as §4, §5, §6
# Pim-1 = Pim-1 (Homo sapiens (Human), UniProt P11309); assay: ADP-Glo Kinase Assay, Pim-1; assay type: biochemical; conditions: 1 μM compound; for inhibition at 1 µM: read-out: Pim-1 % INH (1 μM)
# Experimental: as §1, §2, §3
# SW-480 cells = assay: Growth inhibition, MTS assay, SW-480; assay type: cell-based, Human; conditions: 72 hours, MTS cell viability, read-out: SW-480 ED50
# Excerpt: as §4, §5, §6
# FLT3wt, sequence (P36888 27-993): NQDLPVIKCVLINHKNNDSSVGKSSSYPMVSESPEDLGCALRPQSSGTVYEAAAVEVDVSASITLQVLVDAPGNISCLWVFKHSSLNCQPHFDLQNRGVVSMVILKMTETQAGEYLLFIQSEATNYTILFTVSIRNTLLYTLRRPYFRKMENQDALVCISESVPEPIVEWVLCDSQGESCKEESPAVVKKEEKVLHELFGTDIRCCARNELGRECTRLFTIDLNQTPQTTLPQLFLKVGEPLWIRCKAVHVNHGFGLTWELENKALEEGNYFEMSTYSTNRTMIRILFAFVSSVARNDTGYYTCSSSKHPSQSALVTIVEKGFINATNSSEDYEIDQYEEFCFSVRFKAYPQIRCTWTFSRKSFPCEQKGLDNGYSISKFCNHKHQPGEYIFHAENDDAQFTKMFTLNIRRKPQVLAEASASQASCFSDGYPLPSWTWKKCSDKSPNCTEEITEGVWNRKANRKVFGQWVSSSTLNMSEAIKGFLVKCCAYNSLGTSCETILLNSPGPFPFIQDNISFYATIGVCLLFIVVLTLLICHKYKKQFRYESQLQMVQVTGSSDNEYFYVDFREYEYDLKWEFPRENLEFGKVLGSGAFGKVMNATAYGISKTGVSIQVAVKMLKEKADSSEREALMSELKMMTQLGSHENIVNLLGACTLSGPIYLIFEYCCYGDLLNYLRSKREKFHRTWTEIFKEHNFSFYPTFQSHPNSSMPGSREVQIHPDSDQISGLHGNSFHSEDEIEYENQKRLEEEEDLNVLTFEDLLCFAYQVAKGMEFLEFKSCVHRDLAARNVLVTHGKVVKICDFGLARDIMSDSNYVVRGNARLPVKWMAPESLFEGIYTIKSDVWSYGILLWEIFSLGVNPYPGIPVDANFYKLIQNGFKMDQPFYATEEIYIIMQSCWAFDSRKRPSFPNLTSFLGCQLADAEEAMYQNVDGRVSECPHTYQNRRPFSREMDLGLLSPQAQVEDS
# Pim-2, sequence (Q9P1W9 whole entry): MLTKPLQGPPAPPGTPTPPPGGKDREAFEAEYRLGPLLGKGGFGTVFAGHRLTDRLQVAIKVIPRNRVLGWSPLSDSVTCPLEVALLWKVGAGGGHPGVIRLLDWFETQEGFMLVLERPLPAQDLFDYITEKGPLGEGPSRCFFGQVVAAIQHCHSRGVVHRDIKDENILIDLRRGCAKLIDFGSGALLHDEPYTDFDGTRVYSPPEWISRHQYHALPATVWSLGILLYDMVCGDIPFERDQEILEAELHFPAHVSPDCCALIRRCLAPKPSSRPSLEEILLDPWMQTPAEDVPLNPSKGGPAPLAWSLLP
# Pim-1, sequence (P11309 whole entry): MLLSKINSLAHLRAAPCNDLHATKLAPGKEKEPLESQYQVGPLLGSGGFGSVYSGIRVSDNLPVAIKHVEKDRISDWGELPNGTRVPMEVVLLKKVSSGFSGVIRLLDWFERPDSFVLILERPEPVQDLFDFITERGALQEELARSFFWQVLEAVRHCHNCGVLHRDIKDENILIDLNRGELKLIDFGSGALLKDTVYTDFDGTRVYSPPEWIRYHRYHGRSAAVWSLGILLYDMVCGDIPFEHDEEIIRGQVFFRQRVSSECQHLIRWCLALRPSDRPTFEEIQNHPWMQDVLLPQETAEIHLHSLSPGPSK
Pim-2 % INH (1 μM) (Pim-2) [%],DYRK1A % INH (1 μM) (DYRK1) [%],Flt3wt % INH (1 μM) (FLT3wt) [%],Pim-3 % INH (1 μM) (Pim-3) [%],IC50 (HepG2 cells; 72 hours) [nM],CDK2/E % INH (1 μM) (CDK2/E) [%],IC50 (MV4-11 cells; 72 hours) [nM],Pim-1 % INH (1 μM) (Pim-1) [%],"IC50 (HepG2 cells; Homo sapiens, HepG2, 72 h) [nM]","IC50 (SW-480 cells; Homo sapiens, SW480) [nM]","IC50 (MV4-11 cells; Homo sapiens, MV4-11, 72 h) [nM]",inhibition at 1 µM (Pim-2) [%],inhibition at 1 µM (DYRK1) [%],inhibition at 1 µM (FLT3wt) [%],inhibition at 1 µM (Pim-3) [%],inhibition at 1 µM (CDK2/E) [%],inhibition at 1 µM (Pim-1) [%],IC50 (SW-480 cells) [nM],SMILES,IC50 (HEL92 cells; 72 hours) [nM],"IC50 (HEL92 cells; Homo sapiens, 72 h) [nM]"
64,57,19,75,1400,10,1600,>95,,,,,,,,,,,O=[N+]([O-])c1c(Br)c(Br)cc2c1nc(N[C@H]1CCNC1)n2CC1CC1 [Example 1CI],6100,
,,,,,,,,6800,8100,3300,,,,,,,,O=[N+]([O-])c1c(Br)c(Br)cc2[nH]c(N3CCNCC3)nc12 [Example 1E],,
,,,,,,,,1900,,1100,51,52,15,82,6,> 95,,CC(C)n1c(NC2CCNC2)nc2c([N+](=O)[O-])c(Br)c(Br)cc21 (stereo not drawn) [Example 1BA],,6900
,,,,,,,,1500,4900,1700,,,< 5,57,< 5,80,,"CCn1c(N2CCNC(C)(C)C2)nc2c([N+](=O)[O-])c(Br)c(Br)cc21 [Example 22W, 5,6-dibromo-2-(3,3-dimethylpiperazin-1-yl)-1-ethyl-4-nitro-1H-1,3-benzodiazole]",,9500
82,80,39,91,2900,11,5100,>95,,,,,,,,,,,CC(C)n1c(N2CCC[C@H](N)C2)nc2c(C#N)c(Br)c(Br)cc21 [Example 1BV],,5300
,,,,,,,,4100,7400,3100,28,,< 5,70,< 5,85,,CCn1c(NCCCN)nc2c([N+](=O)[O-])c(Br)c(Br)cc21 [Example 1C],,> 10000
,,,,,,,,1400,5500,3100,,61,< 5,,< 5,53,,"C#CCn1c(N2CCNCC2)nc2c([N+](=O)[O-])c(Br)c(Br)cc21 [Example 2B, 5,6-dibromo-4-nitro-2-(piperazin-1-yl)-1-(prop-2-yn-1-yl)-1H-1,3-benzodiazole hydrochloride]",,6700
,,,,,,,,2700,2500,2900,,,,,,,,"CCn1c(NCCCN2CCCC2)nc2c([N+](=O)[O-])c(Br)c(Br)cc21 [Example 22P, 5,6-dibromo-1-ethyl-4-nitro-N-[3-(pyrrolidin-1-yl)propyl]-1H-1,3-benzodiazol-2-amine]",,5900
,,,,,,,,1200,,500,16,22,23,56,26,70,,CC(C)n1c(NC2CCCNC2)nc2c(C#N)c(Br)c(Br)cc21 (stereo not drawn) [Example 1BT],,5700
,,,,,,,,1300,3100,2300,,25,10,34,< 5,71,,"C#CCn1c(NCCCN)nc2c([N+](=O)[O-])c(Br)c(Br)cc21 [Example 2G, N-(3-aminopropyl)-5,6-dibromo-4-nitro-1-(prop-2-yn-1-yl)-1H-1,3-benzodiazol-2-amine hydrochloride]",,6000
,,,,,,,,2300,5000,700,,39,< 5,56,< 5,74,,"CCn1c(N2CCNC(C)C2)nc2c([N+](=O)[O-])c(Br)c(Br)cc21 (stereo not drawn) [Example 22X, 5,6-dibromo-1-ethyl-2-(3-methylpiperazin-1-yl)-4-nitro-1H-1,3-benzodiazole]",,8700
,,,,,,,,3600,,900,21,66,39,48,21,> 95,,CC(O)Cn1c(N2CCNCC2)nc2c([N+](=O)[O-])c(Br)c(Br)cc21 (stereo not drawn) [Example 1BS],,4600
,,,,4300,,5100,,,,,,,,,,,5600,CCn1c(N2CCC(N)CC2)nc2c([N+](=O)[O-])c(Br)c(Br)cc21 [Example 1I],,
10,14,17,32,2200,9,5000,82,,,,,,,,,,,O=[N+]([O-])c1c(Br)c(Br)cc2c1nc(N[C@@H]1CCCNC1)n2CC1CC1 [Example 1CH],5700,
,,,,,,,,1800,,500,36,43,49,88,11,> 95,,"CC(C)n1c(N2CCN[C@H](C)C2)nc2c([N+](=O)[O-])c(Br)c(Br)cc21 [Example 22AA, 5,6-dibromo-2-[(3R)-3-methylpiperazin-1-yl]-4-nitro-1-(propan-2-yl)-1H-1,3-benzodiazole]",,1200
,,,,,,,,1800,,300,70,> 95,78,89,15,> 95,,"O=[N+]([O-])c1c(Br)c(Br)cc2c1nc(N1CCNCC1)n2CC1CCC1 [Example 2F, 5,6-dibromo-1-(cyclobutylmethyl)-4-nitro-2-(piperazin-1-yl)-1H-1,3-benzodiazole hydrochloride]",,2100
,,,,,,,,1400,1400,2800,,,,,,,,"CCn1c(NCC2CCN(CCN(C)C)C2)nc2c([N+](=O)[O-])c(Br)c(Br)cc21 (stereo not drawn) [Example 22O, 5,6-dibromo-N-({1-[2-(dimethylamino)ethyl]pyrrolidin-3-yl}methyl)-1-ethyl-4-nitro-1H-1,3-benzodiazol-2-amine]",,2500

# — patent US10174013B2, “Benzimidazole derivatives as kinase inhibitors” (SELVITA S.A., priority 2012, dated 2019)
